# In ChEMBL document CHEMBL5291721, “A preclinical secondary pharmacology resource illuminates target-adverse drug reaction associations of marketed drugs” (Nat Commun, 2023):
# Experiments:
# Adenosine receptor A1 = biological target: T1, Adenosine receptor A1 (Homo sapiens, UniProt P30542)
# T1 sequence (P30542 whole entry): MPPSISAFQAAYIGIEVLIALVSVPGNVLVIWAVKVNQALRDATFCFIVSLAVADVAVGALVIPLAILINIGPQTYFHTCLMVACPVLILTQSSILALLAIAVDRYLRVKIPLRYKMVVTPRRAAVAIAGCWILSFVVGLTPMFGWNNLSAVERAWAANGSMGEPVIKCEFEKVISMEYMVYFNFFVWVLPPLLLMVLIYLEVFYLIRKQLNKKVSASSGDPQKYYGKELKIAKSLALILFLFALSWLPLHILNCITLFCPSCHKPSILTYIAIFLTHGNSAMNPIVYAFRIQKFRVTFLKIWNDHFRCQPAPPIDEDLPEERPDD
# Adenosine receptor A3 = biological target: T2, Adenosine receptor A3 (Homo sapiens, UniProt P0DMS8)
# T2 sequence (P0DMS8 whole entry): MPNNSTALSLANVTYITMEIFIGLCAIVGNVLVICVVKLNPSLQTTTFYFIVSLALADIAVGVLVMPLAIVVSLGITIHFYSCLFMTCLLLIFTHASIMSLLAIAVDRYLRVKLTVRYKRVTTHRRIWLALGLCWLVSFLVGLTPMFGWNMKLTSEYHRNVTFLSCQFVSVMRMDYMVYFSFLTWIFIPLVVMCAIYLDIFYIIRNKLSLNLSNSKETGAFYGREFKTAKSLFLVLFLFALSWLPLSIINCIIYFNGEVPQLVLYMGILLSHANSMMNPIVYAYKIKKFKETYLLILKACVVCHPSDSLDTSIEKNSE
# [1] = biological target: T3, 5-hydroxytryptamine receptor 1A (Homo sapiens, UniProt P08908); format: functional, cell-based
# T3 sequence (P08908 whole entry): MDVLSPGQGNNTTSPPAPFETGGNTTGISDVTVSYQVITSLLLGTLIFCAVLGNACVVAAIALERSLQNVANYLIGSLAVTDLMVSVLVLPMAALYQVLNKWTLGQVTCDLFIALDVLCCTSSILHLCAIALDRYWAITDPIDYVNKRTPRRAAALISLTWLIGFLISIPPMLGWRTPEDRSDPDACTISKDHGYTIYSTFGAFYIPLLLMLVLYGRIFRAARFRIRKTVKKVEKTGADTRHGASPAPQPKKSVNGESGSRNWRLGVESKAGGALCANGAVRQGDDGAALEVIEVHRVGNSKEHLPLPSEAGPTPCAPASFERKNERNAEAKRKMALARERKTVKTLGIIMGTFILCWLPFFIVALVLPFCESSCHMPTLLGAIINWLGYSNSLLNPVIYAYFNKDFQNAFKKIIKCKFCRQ
# [2] = biological target: T4, Alpha-2C adrenergic receptor (Homo sapiens, UniProt P18825); format: functional
# T4 sequence (P18825 whole entry): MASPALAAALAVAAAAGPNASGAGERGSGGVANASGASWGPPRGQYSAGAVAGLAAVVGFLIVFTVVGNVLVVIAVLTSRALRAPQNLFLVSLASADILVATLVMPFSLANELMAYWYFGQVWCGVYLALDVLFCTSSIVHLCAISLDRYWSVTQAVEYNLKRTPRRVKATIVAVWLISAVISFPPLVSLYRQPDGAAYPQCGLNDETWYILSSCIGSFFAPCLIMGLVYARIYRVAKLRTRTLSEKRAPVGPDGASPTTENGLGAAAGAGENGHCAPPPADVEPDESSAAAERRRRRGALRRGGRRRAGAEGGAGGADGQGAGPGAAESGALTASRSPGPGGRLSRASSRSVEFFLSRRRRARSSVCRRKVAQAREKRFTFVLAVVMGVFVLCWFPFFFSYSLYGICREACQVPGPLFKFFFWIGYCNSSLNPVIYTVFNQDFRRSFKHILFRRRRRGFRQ
# [3] = biological target: T5, Neuropeptide Y receptor type 1 (Homo sapiens, UniProt P25929)
# T5 sequence (P25929 whole entry): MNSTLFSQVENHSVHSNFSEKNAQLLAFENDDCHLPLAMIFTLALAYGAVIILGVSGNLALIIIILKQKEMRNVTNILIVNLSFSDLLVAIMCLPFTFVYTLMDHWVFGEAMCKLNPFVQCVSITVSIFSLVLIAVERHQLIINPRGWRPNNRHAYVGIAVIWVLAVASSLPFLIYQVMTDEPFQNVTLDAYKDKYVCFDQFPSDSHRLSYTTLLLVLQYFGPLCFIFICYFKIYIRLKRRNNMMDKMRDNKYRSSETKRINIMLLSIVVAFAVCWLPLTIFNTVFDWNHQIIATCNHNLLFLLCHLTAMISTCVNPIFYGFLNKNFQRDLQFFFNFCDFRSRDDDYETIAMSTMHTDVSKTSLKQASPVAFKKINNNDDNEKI
# Melanocortin receptor 3 = Melanocortin receptor 3 (Homo sapiens, UniProt P41968)
# [4] = biological target: Growth hormone secretagogue receptor type 1 (Homo sapiens, UniProt Q92847)
# [5] = biological target: Kappa-type opioid receptor (Homo sapiens, UniProt P41145)
# [6] = biological target: Voltage-gated inwardly rectifying potassium channel KCNH2 (Homo sapiens, UniProt Q12809); format: functional; conditions: read-out: AC50
# [7] = biological target: 5-hydroxytryptamine receptor 2B (Homo sapiens, UniProt P41595); format: functional, cell-based
# [8] = biological target: T6, Alpha-1A adrenergic receptor (Homo sapiens, UniProt P35348); format: functional, cell-based
# T6 sequence (P35348 whole entry): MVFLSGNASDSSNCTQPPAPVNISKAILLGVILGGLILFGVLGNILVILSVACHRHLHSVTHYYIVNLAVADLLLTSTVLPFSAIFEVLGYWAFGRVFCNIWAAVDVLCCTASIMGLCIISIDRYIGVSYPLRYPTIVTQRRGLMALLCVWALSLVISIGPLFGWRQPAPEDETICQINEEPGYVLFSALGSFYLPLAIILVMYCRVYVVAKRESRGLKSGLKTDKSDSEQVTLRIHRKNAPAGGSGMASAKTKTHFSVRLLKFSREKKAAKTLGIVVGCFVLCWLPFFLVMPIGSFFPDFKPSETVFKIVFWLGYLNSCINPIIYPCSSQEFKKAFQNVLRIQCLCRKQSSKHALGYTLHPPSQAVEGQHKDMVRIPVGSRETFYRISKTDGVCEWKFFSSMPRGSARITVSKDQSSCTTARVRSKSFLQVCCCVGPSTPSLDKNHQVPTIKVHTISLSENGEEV
# Further: assay procedure not described here.
# Chain of Voltage-gated inwardly rectifying potassium channel KCNH2 (Q12809 whole entry): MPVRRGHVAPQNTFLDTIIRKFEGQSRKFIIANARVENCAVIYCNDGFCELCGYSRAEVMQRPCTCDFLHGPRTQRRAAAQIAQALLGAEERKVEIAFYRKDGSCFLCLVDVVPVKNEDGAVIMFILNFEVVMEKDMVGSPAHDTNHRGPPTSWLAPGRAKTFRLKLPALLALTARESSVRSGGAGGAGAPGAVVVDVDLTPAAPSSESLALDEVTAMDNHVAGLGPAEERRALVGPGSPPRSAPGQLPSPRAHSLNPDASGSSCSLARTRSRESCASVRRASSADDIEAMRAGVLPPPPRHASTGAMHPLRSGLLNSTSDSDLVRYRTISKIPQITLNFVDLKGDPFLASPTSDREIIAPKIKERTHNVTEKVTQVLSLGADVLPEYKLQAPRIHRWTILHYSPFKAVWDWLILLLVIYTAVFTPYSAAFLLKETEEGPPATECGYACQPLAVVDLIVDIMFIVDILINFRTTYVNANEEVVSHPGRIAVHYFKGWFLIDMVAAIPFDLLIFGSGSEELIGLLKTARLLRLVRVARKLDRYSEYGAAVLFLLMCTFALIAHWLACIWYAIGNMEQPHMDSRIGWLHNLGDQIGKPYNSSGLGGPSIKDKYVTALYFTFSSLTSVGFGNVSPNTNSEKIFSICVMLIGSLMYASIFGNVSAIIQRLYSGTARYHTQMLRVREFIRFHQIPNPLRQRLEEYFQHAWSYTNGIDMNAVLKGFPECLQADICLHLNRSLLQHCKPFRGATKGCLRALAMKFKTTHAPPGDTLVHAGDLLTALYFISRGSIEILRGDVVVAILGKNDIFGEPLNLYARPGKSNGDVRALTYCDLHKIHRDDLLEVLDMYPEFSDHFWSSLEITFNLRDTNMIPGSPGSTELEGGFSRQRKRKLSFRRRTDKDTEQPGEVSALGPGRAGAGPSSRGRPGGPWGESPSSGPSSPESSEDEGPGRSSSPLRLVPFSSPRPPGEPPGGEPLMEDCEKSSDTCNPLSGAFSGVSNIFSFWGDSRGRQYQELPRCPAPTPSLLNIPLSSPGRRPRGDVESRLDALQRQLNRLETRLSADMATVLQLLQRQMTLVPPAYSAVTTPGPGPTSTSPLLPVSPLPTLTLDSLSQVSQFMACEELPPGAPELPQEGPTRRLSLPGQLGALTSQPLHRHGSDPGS
# Chain of Kappa-type opioid receptor (P41145 whole entry): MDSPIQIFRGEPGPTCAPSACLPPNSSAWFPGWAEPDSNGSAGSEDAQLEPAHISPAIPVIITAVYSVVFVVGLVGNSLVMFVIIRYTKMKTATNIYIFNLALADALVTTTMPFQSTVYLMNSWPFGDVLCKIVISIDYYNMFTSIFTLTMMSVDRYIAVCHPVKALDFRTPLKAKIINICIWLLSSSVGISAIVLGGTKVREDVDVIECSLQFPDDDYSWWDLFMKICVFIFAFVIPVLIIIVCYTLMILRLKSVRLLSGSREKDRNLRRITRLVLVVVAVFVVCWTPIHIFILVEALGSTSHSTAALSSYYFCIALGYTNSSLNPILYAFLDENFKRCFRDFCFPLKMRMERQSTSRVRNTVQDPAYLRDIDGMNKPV
# Chain of Growth hormone secretagogue receptor type 1 (Q92847 whole entry): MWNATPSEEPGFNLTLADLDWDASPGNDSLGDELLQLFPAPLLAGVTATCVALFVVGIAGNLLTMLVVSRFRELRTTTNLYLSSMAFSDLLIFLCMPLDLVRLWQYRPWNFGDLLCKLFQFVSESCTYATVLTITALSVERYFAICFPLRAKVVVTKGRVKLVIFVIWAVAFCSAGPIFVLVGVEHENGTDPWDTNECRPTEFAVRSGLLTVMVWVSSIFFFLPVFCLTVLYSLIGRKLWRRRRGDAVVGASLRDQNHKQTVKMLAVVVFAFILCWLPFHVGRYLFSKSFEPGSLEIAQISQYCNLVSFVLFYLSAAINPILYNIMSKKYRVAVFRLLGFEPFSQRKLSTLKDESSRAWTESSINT
# Chain of 5-hydroxytryptamine receptor 2B (P41595 whole entry): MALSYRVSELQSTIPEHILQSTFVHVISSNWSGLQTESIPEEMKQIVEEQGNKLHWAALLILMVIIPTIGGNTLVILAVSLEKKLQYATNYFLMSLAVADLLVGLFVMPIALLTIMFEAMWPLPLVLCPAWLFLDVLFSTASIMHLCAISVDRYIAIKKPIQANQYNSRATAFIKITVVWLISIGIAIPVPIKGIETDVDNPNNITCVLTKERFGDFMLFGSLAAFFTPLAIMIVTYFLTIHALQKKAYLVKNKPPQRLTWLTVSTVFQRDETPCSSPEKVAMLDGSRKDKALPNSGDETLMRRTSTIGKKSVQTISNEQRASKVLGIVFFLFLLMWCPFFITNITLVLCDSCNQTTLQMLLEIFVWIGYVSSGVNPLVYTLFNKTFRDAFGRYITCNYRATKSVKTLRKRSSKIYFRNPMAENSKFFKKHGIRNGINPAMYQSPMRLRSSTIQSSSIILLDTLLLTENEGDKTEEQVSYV
# Chain of Melanocortin receptor 3 (P41968 whole entry): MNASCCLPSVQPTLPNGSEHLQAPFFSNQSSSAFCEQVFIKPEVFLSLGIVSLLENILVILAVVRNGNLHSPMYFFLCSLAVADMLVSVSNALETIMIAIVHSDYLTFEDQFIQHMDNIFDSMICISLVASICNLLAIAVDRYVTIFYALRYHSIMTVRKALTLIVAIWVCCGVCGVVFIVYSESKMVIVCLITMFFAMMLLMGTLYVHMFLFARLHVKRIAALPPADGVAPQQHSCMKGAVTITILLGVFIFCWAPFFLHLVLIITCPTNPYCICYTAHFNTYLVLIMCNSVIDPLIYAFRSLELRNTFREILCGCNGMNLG
SMILES,AC50 (Adenosine receptor A1) [µM],AC50 (Adenosine receptor A3) [µM],AC50 [1] [µM],AC50 [2] [µM],AC50 [3] [µM],AC50 (Melanocortin receptor 3) [µM],AC50 [4] [µM],AC50 [5] [µM],AC50 [6] [µM],AC50 [7] [µM],AC50 [8] [µM]
NC(=O)CN1CC(O)CC1=O (configuration not stated) [OXIRACETAM],> 30,> 30,> 30,> 30,> 30,> 30,> 30,> 30,> 30,> 30,> 30
Cc1c(OCC(F)(F)F)ccnc1C[S+]([O-])c1nc2ccccc2[nH]1 (configuration not stated) [LANSOPRAZOLE],16.8,7.77,> 10,> 10,24.5,> 30,9.67,4.88,> 30,> 10,> 30
